The source of these data is ChEMBL document CHEMBL1144195, “Synthesis and antitumor activity of C-9 epimers of the tetrahydrofuran containing acetogenin 4-deoxyannoreticuin” (2008).

≈ marks a conversion by molar mass, not a printed value.

For one experiment, the system named is PC-3. The experiment can be described thus: Cytotoxicity against human PC-3 cells after 72 hrs by MTS method. Format: functional. The following applies: PC-3, 72 h.
For the next experiment, the system named is Jurkat. The experiment in a line: Cytotoxicity against human Jurkat cells after 72 hrs by MTS method. The experiment is classed as functional. Background: Formazan colour is commonly taken as a measure of viable cells.

Consider `CCCCCCCCCCCC[C@@H](O)[C@H]1CC[C@H]([C@H](O)CCCCC[C@H](O)CCCCCCC2=C[C@H](C)OC2=O)O1`, for which the figures for the GI50 in the experiment on PC-3 and in the experiment on Jurkat were 15 µg/mL (≈ 25.8 µM) and 5 µg/mL (≈ 8.61 µM), respectively.

As for `CCCCCCCCCCCC[C@@H](O)[C@H]1CC[C@H]([C@H](O)CCCCC[C@@H](O)CCCCCCC2=C[C@H](C)OC2=O)O1`, the GI50 in the experiment on PC-3 worked out at 10 µg/mL (≈ 17.2 µM); with Jurkat it was 5 µg/mL (≈ 8.61 µM).

The GI50 is the concentration at which growth is held to half of that of the control.
